In US20020128258A1, “Therapeutical method involving subcutaneous administration of drugs containing cephalotaxine derivatives” (priority 2001, published 2002):
“Also recorded” adds a separate entry of the source. Like-named read-outs stand apart in the source and are kept apart here.

What was measured:
Beagle Dog = experiment: Subacute toxicity screening of two forms of HHT in one dog; format: in vivo; details: for Clinical examination: clinical signs: single subcutaneous injection (hydrochloride day 5, base day 11); for Tolerance (toxicology conclusion): one dog, CIVI 48 hours or subcutaneous injection
Experimental: Species/Strain: Beagle Dog […]
treatment 1: Intravenous infusion (IV)
Treatments 2 and 3: subcutaneous injection (SQ) […]
treatment 1: continuous Intravenous infusion (CIVI) for 48 hours (days 1 and 2) treatment 2: single subcutaneous (SQ) injection on day 5 treatment 3: single subcutaneous (SQ) injection on day 11
Duration of treatment: see § administration/day […]
treatments 1 and 2: sterile isotonic saline solution

[1] = tested on: patient with acute myeloid leukemia / blastic phase of chronic myelogenous leukemia
Experimental: In addition, this patient was not eligible for bone marrow transplantation. All current good clinical practices and applicable ethical rules were applied. […] Physicians of this institution were experienced with the clinical use of the same formulation by intravenous mode of administration in patients with myeloid leukemias. […] A 5 mg-vial of lyophilized HHT hydrochloride for injection was reconstituted with 2.5 mL of saline water for injection. A volume corresponding to 1 mg of HHT per square meter of body surface area per day divided In two daily subcutaneous injections (2 subcutaneous injections a day) was administered in a short single injection, during a period of nine (9) consecutive days.

[2] = dog, in vivo, sc
Experimental: (§1) Comparative Pharmacokinetic Study in Dogs After Subcutaneous Injection of 5 mg/m2 of Hydrochloride and Base Forms of HHT
(§2) Number of animals/sex/dose: the same dog was used for each treatment
(§3) treatment 1: 0.25 mg/kg of substance A (HHT-hydrochloride form)
(§4) treatment 2: 0.25 mg/kg of substance A (HHT-hydrochloride form)
(§5) treatment 3: 0.25 mg/kg of substance B (HHT-base form)
(§6) Treatment 3: aqueous solution in 0.5% hydroxyethylcellulose with 0.1% Tween 80
(§7) Analytical method: HPLC with flourimetric detection
(§8) Blood samples were collected at time 0, 30, 60, 120, 240, 480 minutes and 24 hours then HHT concentration was determined in plasma by an HPLC method in using a fluorimetric detection.

patients = details: continuous infusion 2.5 mg/m2 daily for 10 to 14 days; cited from earlier work
[3] = Comparative pharmacokinetic study in dogs after subcutaneous injection of hydrochloride and base forms of HHT; details: dog, 0.25 mg/kg single subcutaneous injection
Experimental: as §1, §2, §3, §4, §5, §6, §7, §8

SMILES: COC(=O)C[C@](O)(CCCC(C)(C)O)C(=O)O[C@@H]1C(OC)=C[C@]23CCCN2CCc2cc4c(cc2[C@H]13)OCO4.Cl [HHT hydrochloride]
- Body weight loss (Beagle Dog; after treatment 1: 0.25 mg/kg continuous intravenous infusion 48 hours): 1.1 kg
- Body weight loss (Beagle Dog; after treatment 2: 0.25 mg/kg single subcutaneous injection on day 5): 0.4 kg
- Local tolerance, microscopic examination (histopathology) of skin biopsy (Beagle Dog; biopsy taken on day 6, the day after the SQ injection, 0.25 mg/kg): well tolerated at the local level
- Clinical signs following CIVI (Beagle Dog; one Beagle dog, 0.25 mg/kg, continuous intravenous infusion for 48 hours): No clinical signs
- Clinical examination: clinical signs (Beagle Dog; one Beagle dog, 0.25 mg/kg): yellowish vomiting, soft feces, transient decrease in activity and hypersalivation
- Tolerance (toxicology conclusion) (Beagle Dog; 0.25 mg/kg): good tolerance
- Local tolerance at the points of injection ([1]; human, in vivo): no local sign of intolerance
- Granulocyte count (peripheral blood counts) ([1]; patient #01, SQ 1 mg/m2/day, 9 days): relatively fast decrease
- Myelosuppressive effect, post-induction follow-up ([1]; patient #01, SQ 1 mg/m2/day, typical of intravenous HHT 2.5 mg/m2/day): strong myelosuppressive effect
- Clinical improvements compared with examples 3 and 4 ([1]; patient #03, acute myeloid leukemia): Same clinical improvements as those seen in example 3 and 4
- Bioavailability of salt form versus base form [2]: considerably higher (triple)
- Area under the curve (AUC) ([2]; 0.25 mg/kg): 280 ng·h/mL
- Calculated rate AUC HHT-hydrochloride/AUC HHT-base ([2]; 0.25 mg/kg): 3.24
- Maximum of concentration in plasma ([2]; 0.25 mg/kg): 112 ng/mL
- Time of maximum of concentration ([2]; 0.25 mg/kg): 2 h

SMILES: COC(=O)C[C@](O)(CCCC(C)(C)O)C(=O)O[C@@H]1C(OC)=C[C@]23CCCN2CCc2cc4c(cc2[C@H]13)OCO4 [HHT, homoharringtonine]
- Cardiovascular complications including hypotensive events and arrythmias, patients affected (patients): less than 5 % of patients

SMILES: COC(=O)C[C@](O)(CCCC(C)(C)O)C(=O)O[C@@H]1C(OC)=C[C@]23CCCN2CCc2cc4c(cc2[C@H]13)OCO4 [HHT-base, reference compound]
- Clinical examination: clinical signs (Beagle Dog; one Beagle dog, 0.25 mg/kg, 0.25 mg/kg): liquid feces with presence of blood, hypersalivation, decrease in activity, pallor of gingival mucous membranes and decrease in activity; also recorded: liquid feces, hypersalivation, decrease in activity and pallor of gingival mucous membrane
- Tolerance (toxicology conclusion) (Beagle Dog; 0.25 mg/kg): good tolerance
- Mortality, time after the beginning of the treatment (Beagle Dog; second subcutaneous injection, 0.25 mg/kg, day 11, same dog after earlier treatments): 8 h
- Area under the curve (AUC) [3]: 86.5 ng·h/mL
- Maximum of concentration in plasma [3]: 18 ng/mL
- Time of maximum of concentration [3]: 0.5 h
